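Cells were grown in 96-well plates and exposed to each compound for 48 hours at five concentrations; endpoints were interpolated linearly between bracketing concentrations, or set to the highest concentration if not reached. TGI: concentration producing complete growth inhibition.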
Experiments:
Test in all cases: growth of human tumour cells (NCI), 48 h
RPMI-8226 leukemia = tested on: RPMI-8226 leukemia
IGROV1 ovarian = tested on: IGROV1 ovarian
EKVX NSCLC = tested on: EKVX NSCLC
786-0 renal = tested on: 786-0 renal
A549 NSCLC = tested on: A549 NSCLC
KM12 colon = tested on: KM12 colon
OVCAR-5 ovarian = tested on: OVCAR-5 ovarian
SK-MEL-28 melanoma = tested on: SK-MEL-28 melanoma
HCC-2998 colon = tested on: HCC-2998 colon
SNB-75 CNS = tested on: SNB-75 CNS
SN12C renal = tested on: SN12C renal
SK-OV-3 ovarian = tested on: SK-OV-3 ovarian
MALME-3M melanoma = tested on: MALME-3M melanoma
PC-3 prostate = tested on: PC-3 prostate
UACC-62 melanoma = tested on: UACC-62 melanoma
NCI/ADR-RES ovarian = tested on: NCI/ADR-RES ovarian
OVCAR-3 ovarian = tested on: OVCAR-3 ovarian
NCI-H460 lung = tested on: NCI-H460 lung
COLO 205 colon = tested on: COLO 205 colon
TK-10 renal = tested on: TK-10 renal
HL-60(TB) leukemia = tested on: HL-60(TB) leukemia
MDA-N = tested on: MDA-N
HCT-116 colon = tested on: HCT-116 colon
DU-145 prostate = tested on: DU-145 prostate
MDA-MB-231 breast = tested on: MDA-MB-231 breast
MDA-MB-435 = tested on: MDA-MB-435
K-562 leukemia = tested on: K-562 leukemia
OVCAR-8 ovarian = tested on: OVCAR-8 ovarian
T-47D breast = tested on: T-47D breast
MOLT-4 leukemia = tested on: MOLT-4 leukemia
HT29 colon = tested on: HT29 colon
U251 CNS = tested on: U251 CNS
HOP-62 NSCLC = tested on: HOP-62 NSCLC
RXF 393 renal = tested on: RXF 393 renal
CCRF-CEM leukemia = tested on: CCRF-CEM leukemia
BT-549 breast = tested on: BT-549 breast
HOP-92 NSCLC = tested on: HOP-92 NSCLC
HS 578T breast = tested on: HS 578T breast
NCI-H23 lung = tested on: NCI-H23 lung
SF-295 CNS = tested on: SF-295 CNS
UO-31 renal = tested on: UO-31 renal
NCI-H226 lung = tested on: NCI-H226 lung
HCT-15 colon = tested on: HCT-15 colon
NCI-H522 lung = tested on: NCI-H522 lung
SK-MEL-5 melanoma = tested on: SK-MEL-5 melanoma
OVCAR-4 ovarian = tested on: OVCAR-4 ovarian
SW-620 colon = tested on: SW-620 colon
M14 melanoma = tested on: M14 melanoma
LOX IMVI melanoma = tested on: LOX IMVI melanoma
SR leukemia = tested on: SR leukemia
ACHN renal = tested on: ACHN renal
MCF7 breast = tested on: MCF7 breast
SF-268 CNS = tested on: SF-268 CNS
SNB-19 CNS = tested on: SNB-19 CNS
CAKI-1 renal = tested on: CAKI-1 renal

Measured: TGI

CC(=O)NC(Cc1cnc[nH]1)C(=O)N1CCCC1C(N)=O (stereo not given)
> 100 µM: all assays above

— PubChem BioAssay (NCI)
